From US11542235B2, “Herbicidal 3-azaspiro[5.5] undecane-8, 10-dione compounds” (SYNGENTA PARTICIPATIONS AG, priority 2018, dated 2023)

Tests used:
Format in all cases: in vivo
[1] = tested on: Avena fatua (AVEFA); assay: Glasshouse herbicidal test, pre- and post-emergence, Avena fatua; conditions: 250 g/h, evaluated after 13 days, five point scale; for percentage damage caused to the plant, AVEFA POST: post-emergence; for percentage damage caused to the plant, AVEFA PRE: pre-emergence
Protocol: (§1) Seeds of a variety of test species are sown in standard soil in pots (Lolium perenne (LOLPE), Setaria faberi (SETFA), Alopecurus myosuroides (ALOMY), Echinochloa crus-galli (ECHCG), Avena fatua (AVEFA)). After cultivation for one day (pre-emergence) or after 8 days cultivation (post-emergence) under controlled conditions in a glasshouse (at 24/16° C., day/night; 14 hours light; 65% humidity), the plants are sprayed with an aqueous spray solution derived from the formulation of the technical active ingredient in acetone/water (50:50) solution containing 0.5% Tween 20 (polyoxyethelyene sorbitan monolaurate, CAS RN 9005-64-5). Compounds are applied at […]. The test plants are then grown in a glasshouse under controlled conditions in a glasshouse (at 24/16° C., day/night; 14 hours light; 65% humidity) and watered twice daily. After 13 days for pre and post-emergence, the test is evaluated for the percentage damage caused to the plant. The biological activities are shown in the following table on a five point scale (5=80-100%; 4=60-79%; 3=40-59%; 2=20-39%; 1=0-19%).

[2] = tested on: Setaria faberi (SETFA); assay: Glasshouse herbicidal test, pre- and post-emergence, Setaria faberi; conditions: 250 g/h, evaluated after 13 days, five point scale; for percentage damage caused to the plant, SETFA POST: post-emergence; for percentage damage caused to the plant, SETFA PRE: pre-emergence
Protocol: as §1

[3] = tested on: Alopecurus myosuroides (ALOMY); assay: Glasshouse herbicidal test, pre- and post-emergence, Alopecurus myosuroides; conditions: 250 g/h, evaluated after 13 days, five point scale; for percentage damage caused to the plant, ALOMY POST: post-emergence; for percentage damage caused to the plant, ALOMY PRE: pre-emergence
Protocol: as §1

[4] = tested on: Lolium perenne (LOLPE); assay: Glasshouse herbicidal test, pre- and post-emergence, Lolium perenne; conditions: 250 g/h, evaluated after 13 days, five point scale; for percentage damage caused to the plant, LOLPE POST: post-emergence; for percentage damage caused to the plant, LOLPE PRE: pre-emergence
Protocol: as §1

[5] = tested on: Echinochloa crus-galli (ECHCG); assay: Glasshouse herbicidal test, pre- and post-emergence, Echinochloa crus-galli; conditions: 250 g/h, evaluated after 13 days, five point scale; for percentage damage caused to the plant, ECHCG POST: post-emergence; for percentage damage caused to the plant, ECHCG PRE: pre-emergence
Protocol: as §1

SMILES	percentage damage caused to the plant, AVEFA POST [1]	percentage damage caused to the plant, AVEFA PRE [1]	percentage damage caused to the plant, SETFA POST [2]	percentage damage caused to the plant, SETFA PRE [2]	percentage damage caused to the plant, ALOMY POST [3]	percentage damage caused to the plant, ALOMY PRE [3]	percentage damage caused to the plant, LOLPE POST [4]	percentage damage caused to the plant, LOLPE PRE [4]	percentage damage caused to the plant, ECHCG POST [5]	percentage damage caused to the plant, ECHCG PRE [5]
CC#Cc1cc(C)c(C2=C(OC(=O)OC(C)C)CC3(CCN(C(C)=O)CC3)CC2=O)c(C)c1 [Compound P10]	5 (5=80-100%)	5 (5=80-100%)	5 (5=80-100%)	5 (5=80-100%)	5 (5=80-100%)	5 (5=80-100%)	5 (5=80-100%)	5 (5=80-100%)	5 (5=80-100%)	5 (5=80-100%)
CC#Cc1cc(C)c(C2=C(OC(=O)C(C)(C)C)CC3(CCN(C(C)=O)CC3)CC2=O)c(C)c1 [Compound P11]	5 (5=80-100%)	5 (5=80-100%)	5 (5=80-100%)	5 (5=80-100%)	5 (5=80-100%)	5 (5=80-100%)	5 (5=80-100%)	5 (5=80-100%)	5 (5=80-100%)	5 (5=80-100%)
CC#Cc1cc(C)c(C2=C(OC(=O)C(C)C)CC3(CCN(C(C)=O)CC3)CC2=O)c(C)c1 [Compound P12]	5 (5=80-100%)	5 (5=80-100%)	5 (5=80-100%)	5 (5=80-100%)	5 (5=80-100%)	5 (5=80-100%)	5 (5=80-100%)	5 (5=80-100%)	5 (5=80-100%)	5 (5=80-100%)
CC#Cc1cc(C)c(C2=C(OS(=O)(=O)CC)CC3(CCN(C(C)=O)CC3)CC2=O)c(C)c1 [Compound P13]	5 (5=80-100%)	5 (5=80-100%)	5 (5=80-100%)	5 (5=80-100%)	5 (5=80-100%)	4 (4=60-79%)	5 (5=80-100%)	5 (5=80-100%)	5 (5=80-100%)	4 (4=60-79%)
CC#Cc1cc(C)c(C2=C(OC(=O)SC(C)C)CC3(CCN(C(C)=O)CC3)CC2=O)c(C)c1 [Compound P14]	5 (5=80-100%)	5 (5=80-100%)	5 (5=80-100%)	5 (5=80-100%)	5 (5=80-100%)	5 (5=80-100%)	5 (5=80-100%)	5 (5=80-100%)	5 (5=80-100%)	5 (5=80-100%)
CC#Cc1cc(C)c(C2=C(OC(=O)C3CC3)CC3(CCN(C(C)=O)CC3)CC2=O)c(C)c1 [Compound P15]	5 (5=80-100%)	5 (5=80-100%)	5 (5=80-100%)	5 (5=80-100%)	5 (5=80-100%)	5 (5=80-100%)	5 (5=80-100%)	5 (5=80-100%)	5 (5=80-100%)	5 (5=80-100%)
CC#Cc1cc(C)c(C2=C(OC(=O)OC)CC3(CCN(C(=O)C(F)F)CC3)CC2=O)c(C)c1 [Compound P16]	5 (5=80-100%)	5 (5=80-100%)	5 (5=80-100%)	5 (5=80-100%)	5 (5=80-100%)	5 (5=80-100%)	5 (5=80-100%)	5 (5=80-100%)	5 (5=80-100%)	5 (5=80-100%)
